Laboratory results from US10093938B2, “Regulated switch for gene expression” (The Johns Hopkins University, priority 2014, dated 2018).

Columns and labels:
Format in all cases: cell-based, Saccharomyces cerevisiae
[1] = system: cam-TA; assay: camphor-Off system with ADE2 reporter, growth on SC-Ade
Source text: FIG. 4. […] The cells were 10-fold diluted in across each row.
Another gene ADE2 (SEQ ID No. 10) was used to further evaluate the camphor-Off system. Specifically, we investigated availability of the system to complement the adenine-auxotrophy in a camphor-dependent manner. […] On the other hand, another strain camA-TA, which had cam-TA differently from camA-EmV, grew in […] SC-Ade media (FIG. 4B). […] The reversion frequency is approximately 10^−3. The behavior of each strain was thoroughly consistent with the schematic model of the camphor-system (FIG. 2).

[2] = system: cam-TA; assay: camphor-Off switch, GFP reporter (flow cytometry) in strain camG-TA
Method: To evaluate the performance of the system, we used GFP as a reporter.
However, another strain camG-TA that was constructed by introducing the […] expression cassette into the cam-TA strain produced significant amounts of GFP (FIG. 3C). From this, we conclude that cam-TA binds to camO and can activate the transcription of the reporter gene gfp.
Subsequently, the kinetics of the system was investigated using the camG-TA strain.
Cellular fluorescence from GFP was determined using a LSRII flow cytometer (Becton Dickinson, Franklin Lakes, N.J.) equipped with 488-nm argon ion laser (blue laser) and a 530/30-filter. All samples were suspended in sterile water, and 10,000 cells were analyzed per sample. Data acquisition and analysis were performed using FACSDiva software (Becton Dickinson) and FlowJo (Tree Star, Ashland, Oreg.).

[3] = molecular target: T1, tTA (TetR-VP16 fusion) (Escherichia coli, UniProt P04483); assay: Orthogonality: Tet-Off GFP reporter in strain BY-TeCaOFF (microscopy); settings: 25 μM, 1 day in SC medium
T1 construct: expressed in transfected cells; host or cells: Saccharomyces cerevisiae strain BY-TeCaOFF (integrated pSIB527, CMV promoter)
Source text: (§1) FIG. 6. Independent regulation of fluorescent reporters, RFP and GFP, with camphor-Off and Tet-Off systems. (A) pSIB859 can be used for integrating the camphor-Off system at a single transformation. Its derivative plasmid pSIB872 carries mCherry as a reporter. (B) Plasmid pSIB498 for the Tet-Off system. Its derivative pSIB527 carries gfp as a reporter. (C)-(F) Strain BY-TeCaOFF carries both pSIB872 and pSIB527. Cell images in SC medium (C), SC with camphor (D), SC with Dox (E), and SC with camphor and Dox. The top, middle, and bottom rows represent images of RFP, GFP, and DIC, respectively. Strain BY-TeCaOFF was grown for 1 day in SC medium with the indicated compounds.
(§2) The experiments in this section were performed to examine whether the camphor-Off system was orthogonal/compatible with the Tet-Off system in a yeast strain. Firstly, we developed new two acceptor vectors: one was used for the camphor-Off switch and the other was the Tet-Off switch. […]
(§3) Cells were viewed with an Axioskop-2 microscope (Carl Zeiss, Oberkochen, Germany) equipped with an X-cite120 light source (ExFo, Ontario, Canada) and a fluorescence filter set. A 100× objective and AxioVision software were used to capture fluorescence and differential interference contrast (DIC) images.

[4] = system: cam-TA; settings: BY-TeCaOFF
Source text: as §1, §2, §3

Sequence of cam-TA (as listed by the source): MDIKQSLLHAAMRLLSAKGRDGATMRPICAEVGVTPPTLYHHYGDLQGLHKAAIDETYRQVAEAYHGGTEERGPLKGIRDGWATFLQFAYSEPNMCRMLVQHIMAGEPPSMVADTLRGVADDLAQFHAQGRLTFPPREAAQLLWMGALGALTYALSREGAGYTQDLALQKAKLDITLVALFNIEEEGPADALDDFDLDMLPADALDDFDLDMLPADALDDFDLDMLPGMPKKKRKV

## D-Camphor
[1]; 100 μM camphor, 1 day at 30° C., camPr-ADE2
  growth of strain camA-TA on SC-Ade media that contained camphor: hardly proliferated at all
[1]; camA-TA on SC-Ade media containing camphor
  reversion frequency: approximately 10^−3
[2]; GFP reporter, camG-TA strain
  effective concentration for the camphor-Off system: 25 µM
[2]; camG-TA strain in SC medium, camPr-gfp reporter
  camphor concentration in the presence of which the GFP signal drastically decreased: ≥ 25 µM
[2]; camG-TA strain in the presence of camphor
  period over which GFP intensity went to almost the same level as that of BY4741: 7 h
[3]
  the other fluorescence (GFP, Tet-Off) on addition of camphor alone: detected robustly
[4]; 25 μM, 1 day in SC medium
  corresponding reporter protein (mCherry, camphor-Off) on addition of the drug: drastic decrease
[4]; camphor and Dox 25 μM each
  expression of mCherry reporter when both camphor and Dox were supplied: repressed
